Experimental data from patent publication US20090142363A1, “CYTOTOXIC T-CELL EPITOPE PEPTIDE AND USE THEREOF” (priority 2005, published 2009).
No end group written: not given here.

Assays:
[1] = tested on: PBMCs of healthy adults reactive to the anti-HLA-A*24 antibody; experiment: Induction of specific CTLs from PBMCs, method for quantifying cells producing intracellular IFNγ; assay type: cell-based, human; design: key to specific CTL induction, cytokine quantification method: ∘: “open circle” indicates that the use of a candidate peptide enabled specific CTLs to be induced; x: “cross” indicates that specific CTLs was unable to be induced; conditions: for peptide-specific cytokine production in PBMCs derived from ten people with HLA-A*24 molecule: summary of Table 2
Method: This induction method induces CTLs by adding peptides to culture media of PBMCs. Peptides are presented on antigen-presenting cells present among PBMCs, such as dendritic cells, B cells, macrophages, and certain types of T cells, whereby CTL precursor cells in PBMCs are stimulated to proliferate.
Peripheral blood collected from healthy adults that were reactive to the anti-HLA-A*24 antibody was centrifuged at 3,000 rpm for 5 to 10 minutes. The resulting supernatant plasma was collected. The non-plasma portion was processed according to a conventional method to isolate PBMCs. The characteristic of the present method is the addition of several % of plasma to an induction medium. In the present invention, a favorable result was obtained by adding 5% plasma. The medium is prepared by adding appropriate additives and antibiotics to a medium commonly used for cell culture. The CTL induction medium used in the present invention was RPMI1640 Hepes modify (Sigam) supplemented with 2-mercapotethanol, L-glutamine, and the antibiotics streptomycin and penicillin. In addition to these, insulin, transferrin, selenious acid, pyruvic acid, human serum albumin, solution of non-essential amino acids, and the like may be added. 1 to 3×10^6 PBMCs were suspended in 1 to 2.5 ml of the culture medium. A candidate peptide was added to the cells at a concentration of 1 to 20 μg/ml. The concentration of peptide can be altered depending on the solubility of the peptide. The peptide was added at 10 μg/ml. After two days, IL-2 was added at a final concentration of 20 to 100 U/ml. Round-bottomed culture dishes that allow the exchange of carbon dioxide gas are preferably used to co-culture PBMCs with peptides. In the context of the present invention, 14-ml round-bottomed polypropylene tubes (Becton Dikinson) or 96-well U-bottomed cell culture microtest plates (Becton Dikinson) were used. The adenovirus-specific CTLs were confirmed after about two and four weeks of culture. The cells were stimulated again with the peptide at 10 μg/ml after about two weeks of culture. When the induction of adenovirus-specific CTLs was confirmed, the cells were further stimulated with peptide-pulsed antigen-presenting cells to establish CTL lines.
Approximately 1/10 to all of the cells induced by the above-described method were transferred into 96-well U-bottomed cell culture microtest plates, and the peptide used for the induction was added thereto at a final concentration of 0.01 to 0.05 μg/ml. Then, an intracellular protein transport inhibitor (for example, brefeldin A, monensin, or such) was added, and the cells were cultured in a 5% CO2 incubator at 37° C. for 5 to 16 hours. After culture, the cells were washed, and phycoerythrin (PE)-labeled MHC-tetramer reagent and phycoerythrin-Cy5(PC5)-labeled CD8 antibody (Beckman Coulter) were added thereto. The resulting mixture was allowed to stand at room temperature for 15 to 30 minutes. After washing, the cells were fixed with 4% formaldehyde at 4° C. for 15 minutes and washed with an excess amount of washing solution. After membrane permeabilization treatment with 0.1% saponin, an FITC-labeled anti-IFNγ antibody (Beckman Coulter) was added, and reacted at room temperature for 15 to 30 minutes. After washing, the proportion of IFNγ-positive cells in T cells or MHC-tetramer reagent-positive cells was determined using a flow cytometer.
PBMCs derived from ten people with HLA-A*24 molecule were tested using 10 types of peptides. […] Thus, these six types of candidate epitope peptides serve as adenovirus-specific CTL epitope peptides. Since the adenovirus-specific CTL epitope peptides have the HLA-A*24-binding motif, they are likely to be HLA-A*2402-restricted epitope peptides, which are carried by 60% or more of the Japanese people. In the context of the results described above, MHC-tetramer reagents were synthesized using five types of epitope peptides, and their utility was tested.

[2] = tested on: CTLs with target cells expressing HLA-A*24 molecules; experiment: Confirmation of CTLs by ELISPOT assay (IFNγ spots); assay type: cell-based, human; conditions: FIG. 4
Method: A commercially available ELISPOT assay kit (for example, MABTECH Co.) may be purchased, and the assay can be performed according to the manufacturer's protocol. Alternatively, the assay may also be carried out by the following procedure. 96-well MultiScreen-HA plates (Millipore Co.) were coated with an anti-IFNγ monoclonal antibody (R&D Systems Co.) at 4° C. for overnight. Each well was washed with PBS. Target cells were plated into each well. Any cells expressing HLA-A*24 molecules on their surface can be used as the target cells. For example, T2-A24, a cultured cell which a gene of HLA-A*24 molecule is introduced into a 174CEM.T2 cell, can be used. Alternatively, EBV-infected LCLs expressing HLA-A*24 molecules on their surface can be used as the target cells. These target cells were added into each well with a candidate peptide for adenovirus-specific CTL epitopes or a negative control (HIV) peptide. The mixtures were allowed to stand at room temperature for 30 minutes. Then, an adequate number of CTLs were added, and the mixtures were cultured in a 5% CO2 incubator at 37° C. for 20 hours. CTLs that responded to the candidate epitope peptide secreted IFNγ during this culture period, and the IFNγ bound to the anti-IFNγ monoclonal antibody that was coated on the plates. After culturing was completed, the plates were washed with PBS containing 0.05% Tween-20. Then, an anti-IFNγ polyclonal antibody (Genzyme Co.) and peroxidase-labeled goat anti-rabbit IgG serum were allowed to react in this order at room temperature for 90 minutes each. Furthermore, 3-amino-9-ethylcarbasole (Sigma), a peroxidase substrate, and 0.1M sodium acetate buffer (pH 5.0) containing 0.015% H2O2 was added to each well, and the plates were incubated at room temperature for 40 minutes to visualize the IFNγ spots. The spots were counted under a stereomicroscope.
The spots were counted under a stereomicroscope, and were plotted on a graph.

Sequence | specific CTL induction, cytokine quantification method ([1]; donor ID *24-1) | specific CTL induction, cytokine quantification method ([1]; donor ID *24-2) | specific CTL induction, cytokine quantification method ([1]; donor ID *24-3) | specific CTL induction, cytokine quantification method ([1]; donor ID *24-5) | specific CTL induction, cytokine quantification method ([1]; donor ID *24-8) | specific CTL induction, cytokine quantification method ([1]; donor ID *24-10) | specific CTL induction, cytokine quantification method ([1]; donor ID *24-11) | specific CTL induction, cytokine quantification method ([1]; donor ID *24-12) | specific CTL induction, cytokine quantification method ([1]; donor ID *24-13) | specific CTL induction, cytokine quantification method ([1]; donor ID *24-14) | specific CTL induction confirmed by CD8-positive, IFNγ-positive cells versus HIV peptide ([1]; donor ID*24-8, FIG. 3a-d) | peptide-specific cytokine production in PBMCs derived from ten people with HLA-A*24 molecule [1] | IFNγ spots in ELISPOT assay compared with the negative control (HIV) peptide [2] | CD8-positive, IFNγ-positive (producing) cells in UR ([1]; donor *24-12, restimulation with the same peptide as used in the induction, % in PBMCs) [%] | specific CTL induction confirmed by CD8-positive, IFNγ-positive cells versus HIV peptide ([1]; donor ID*24-12, FIG. 3e-h) | number of persons with peptide-specific IFNγ production / CTL induction ([1]; ten persons tested)
LYANSAHAL | x | x | ∘ | x | ∘ | x | x | x | x | x | induced specific CTLs | induce cytokine production in a peptide-specific manner | IFNγ spots were observed |  |  | 
LYSNVALYL | x | x | x | x | x | x | x | ∘ | ∘ | x |  | induce cytokine production in a peptide-specific manner | IFNγ spots were observed | 2.95 | specific CTL induction was confirmed | two of the ten persons
